ChEMBL document CHEMBL3431459, “Roche carnitine palmitoyltransferase modulator screening data (supplementary data associated with the publication CHEMBL2216752)”
In brackets after ≈: the same amount, converted by molar mass.

Legend:
[1] = target: T1, Carnitine O-palmitoyltransferase 1, muscle isoform (Homo sapiens, UniProt Q92523); assay: SUPPLEMENTARY: Inhibition of Carnitine palmitoyltransferase 1, muscle isoform; parameters: species or system Muscle tissue
T1 sequence (Q92523 whole entry): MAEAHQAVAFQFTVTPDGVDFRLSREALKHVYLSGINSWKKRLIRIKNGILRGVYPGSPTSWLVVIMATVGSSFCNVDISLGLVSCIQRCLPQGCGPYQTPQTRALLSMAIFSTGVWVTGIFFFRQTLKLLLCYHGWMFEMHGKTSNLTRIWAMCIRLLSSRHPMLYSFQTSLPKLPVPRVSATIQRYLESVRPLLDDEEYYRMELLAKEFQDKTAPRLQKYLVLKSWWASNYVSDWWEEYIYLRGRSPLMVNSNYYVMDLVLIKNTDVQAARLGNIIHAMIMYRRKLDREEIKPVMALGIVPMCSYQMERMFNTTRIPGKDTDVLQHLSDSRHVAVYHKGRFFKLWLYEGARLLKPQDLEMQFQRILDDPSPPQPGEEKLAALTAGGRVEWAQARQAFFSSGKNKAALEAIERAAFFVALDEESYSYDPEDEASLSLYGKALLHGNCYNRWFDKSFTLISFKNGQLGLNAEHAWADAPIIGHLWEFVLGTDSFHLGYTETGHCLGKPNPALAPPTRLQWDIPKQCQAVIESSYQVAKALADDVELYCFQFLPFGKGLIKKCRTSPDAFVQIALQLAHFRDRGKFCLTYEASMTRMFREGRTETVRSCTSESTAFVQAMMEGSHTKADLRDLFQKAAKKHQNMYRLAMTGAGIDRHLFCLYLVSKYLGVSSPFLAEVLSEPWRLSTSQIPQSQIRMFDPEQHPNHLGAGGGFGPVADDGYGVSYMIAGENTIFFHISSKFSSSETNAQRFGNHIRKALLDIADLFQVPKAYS

[2] = target: T2, Carnitine O-palmitoyltransferase 1, liver isoform (Homo sapiens, UniProt P50416); assay: (§1) SUPPLEMENTARY: Inhibition of Carnitine palmitoyltransferase 1, liver isoform
T2 sequence (P50416 whole entry): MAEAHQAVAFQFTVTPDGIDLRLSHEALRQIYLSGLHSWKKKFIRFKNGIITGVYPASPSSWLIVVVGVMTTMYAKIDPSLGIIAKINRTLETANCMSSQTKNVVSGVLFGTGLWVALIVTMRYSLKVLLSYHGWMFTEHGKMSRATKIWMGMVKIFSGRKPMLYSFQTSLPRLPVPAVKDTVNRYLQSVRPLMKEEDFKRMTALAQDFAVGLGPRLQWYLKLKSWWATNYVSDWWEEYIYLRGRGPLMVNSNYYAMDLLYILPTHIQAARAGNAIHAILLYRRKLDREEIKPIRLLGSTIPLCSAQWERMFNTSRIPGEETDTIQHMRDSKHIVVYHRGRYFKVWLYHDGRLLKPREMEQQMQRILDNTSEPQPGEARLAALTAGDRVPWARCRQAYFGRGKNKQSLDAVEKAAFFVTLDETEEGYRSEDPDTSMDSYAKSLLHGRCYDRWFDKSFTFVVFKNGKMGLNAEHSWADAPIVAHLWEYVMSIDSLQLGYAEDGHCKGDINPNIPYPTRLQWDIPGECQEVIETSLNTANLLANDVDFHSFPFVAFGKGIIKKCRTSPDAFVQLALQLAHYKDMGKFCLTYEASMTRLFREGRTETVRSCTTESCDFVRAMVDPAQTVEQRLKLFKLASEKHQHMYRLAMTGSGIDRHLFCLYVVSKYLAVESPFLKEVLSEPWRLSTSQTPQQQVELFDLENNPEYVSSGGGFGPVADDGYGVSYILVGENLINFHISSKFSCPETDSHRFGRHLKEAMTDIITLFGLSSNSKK

[3] = target: T3, Carnitine O-palmitoyltransferase 1, liver isoform (Rattus norvegicus, UniProt P32198); assay: as §1
T3 sequence (P32198 whole entry): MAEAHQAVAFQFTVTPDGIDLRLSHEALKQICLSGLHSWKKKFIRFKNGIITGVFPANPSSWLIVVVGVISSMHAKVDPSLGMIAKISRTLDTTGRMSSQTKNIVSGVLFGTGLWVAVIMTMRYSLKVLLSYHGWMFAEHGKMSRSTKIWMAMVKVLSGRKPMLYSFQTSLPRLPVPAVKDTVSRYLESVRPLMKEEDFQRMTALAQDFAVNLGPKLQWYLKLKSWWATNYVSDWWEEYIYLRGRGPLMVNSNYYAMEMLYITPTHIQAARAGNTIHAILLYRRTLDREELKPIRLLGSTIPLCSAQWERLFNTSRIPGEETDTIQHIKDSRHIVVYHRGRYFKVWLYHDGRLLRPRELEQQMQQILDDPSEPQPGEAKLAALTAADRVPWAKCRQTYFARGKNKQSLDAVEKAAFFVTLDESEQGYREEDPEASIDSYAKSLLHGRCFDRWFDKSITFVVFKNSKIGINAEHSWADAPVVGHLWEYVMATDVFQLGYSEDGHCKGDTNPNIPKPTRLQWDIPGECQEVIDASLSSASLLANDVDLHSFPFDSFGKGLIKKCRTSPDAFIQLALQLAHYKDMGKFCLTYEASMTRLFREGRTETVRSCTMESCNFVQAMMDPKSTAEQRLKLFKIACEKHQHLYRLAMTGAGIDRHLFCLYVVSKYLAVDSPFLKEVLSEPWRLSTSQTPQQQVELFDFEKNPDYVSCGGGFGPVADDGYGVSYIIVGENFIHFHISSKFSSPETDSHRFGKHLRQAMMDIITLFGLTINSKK

[4] = SUPPLEMENTARY: PAMPA permeability assay; format: physicochemical; conditions: read-out: Permeability
[5] = SUPPLEMENTARY: Lyophilisation Solubility Assay (LYSA); format: physicochemical; conditions: read-out: Kinetic_solubility
[6] = target: T4, Carnitine O-palmitoyltransferase 2, mitochondrial (Rattus norvegicus, UniProt P18886); assay: (§2) SUPPLEMENTARY: Inhibition of Carnitine palmitoyltransferase 2
T4 sequence (P18886 whole entry): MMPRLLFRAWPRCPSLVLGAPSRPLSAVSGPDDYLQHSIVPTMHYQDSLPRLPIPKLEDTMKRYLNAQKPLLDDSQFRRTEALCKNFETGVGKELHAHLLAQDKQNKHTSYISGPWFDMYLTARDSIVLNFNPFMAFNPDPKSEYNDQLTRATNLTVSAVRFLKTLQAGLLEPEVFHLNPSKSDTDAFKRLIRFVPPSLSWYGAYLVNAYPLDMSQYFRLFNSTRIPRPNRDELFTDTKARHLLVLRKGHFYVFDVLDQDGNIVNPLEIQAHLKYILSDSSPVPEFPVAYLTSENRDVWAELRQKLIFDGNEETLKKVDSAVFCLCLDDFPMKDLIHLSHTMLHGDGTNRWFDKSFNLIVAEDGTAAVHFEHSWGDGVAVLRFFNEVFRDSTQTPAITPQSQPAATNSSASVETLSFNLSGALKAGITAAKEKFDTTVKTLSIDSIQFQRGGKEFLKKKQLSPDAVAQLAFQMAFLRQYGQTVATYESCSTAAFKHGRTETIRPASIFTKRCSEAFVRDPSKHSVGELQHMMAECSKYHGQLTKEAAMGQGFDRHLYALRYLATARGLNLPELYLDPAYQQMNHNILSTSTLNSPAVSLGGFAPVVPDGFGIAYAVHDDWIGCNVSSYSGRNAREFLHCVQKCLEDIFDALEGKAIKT

[7] = target: T5, Carnitine O-palmitoyltransferase 2, mitochondrial (Homo sapiens, UniProt P23786); assay: as §2
T5 sequence (P23786 whole entry): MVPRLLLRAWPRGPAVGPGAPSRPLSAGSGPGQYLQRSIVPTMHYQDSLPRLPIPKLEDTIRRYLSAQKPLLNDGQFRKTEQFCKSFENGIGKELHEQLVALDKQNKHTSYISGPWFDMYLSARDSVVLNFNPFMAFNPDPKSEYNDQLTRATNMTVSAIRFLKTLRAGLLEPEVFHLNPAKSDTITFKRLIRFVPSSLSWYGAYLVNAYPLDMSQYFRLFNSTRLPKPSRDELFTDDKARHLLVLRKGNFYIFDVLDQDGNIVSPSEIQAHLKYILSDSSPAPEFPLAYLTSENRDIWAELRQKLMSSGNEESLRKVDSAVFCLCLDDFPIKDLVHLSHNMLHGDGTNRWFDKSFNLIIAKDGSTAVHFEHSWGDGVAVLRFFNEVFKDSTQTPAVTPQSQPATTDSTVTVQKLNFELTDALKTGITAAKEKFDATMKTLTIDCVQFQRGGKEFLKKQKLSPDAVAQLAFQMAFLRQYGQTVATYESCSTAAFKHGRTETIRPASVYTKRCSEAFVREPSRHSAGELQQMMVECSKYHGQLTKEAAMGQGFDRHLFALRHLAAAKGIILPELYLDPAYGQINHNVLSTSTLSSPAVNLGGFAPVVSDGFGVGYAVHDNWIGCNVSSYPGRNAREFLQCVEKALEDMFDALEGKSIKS

COc1ccc(Cl)cc1Sc1cn(C)c2ccc(C(=O)Nc3ccc(C(=O)O)cc3)cc12
IC50 [1]: > 100000 nM
IC50 [2]: 61.9 nM
IC50 [3]: 74 nM
Papp [4]: 0.53 ×10⁻⁶ cm/s
solubility kinetic [5]: 2 µg/mL (≈ 4.28 µM)
IC50 [6]: > 100000 nM
IC50 [7]: > 100000 nM

Cn1cc(Sc2cccc(Cl)c2)c2cc(C(=O)Nc3ccc(C(=O)O)cc3)ccc21
IC50 [1]: 1130 nM
IC50 [2]: 43.4 nM
IC50 [3]: 21.4 nM
Papp [4]: 0.13 ×10⁻⁶ cm/s
solubility kinetic [5]: 7 µg/mL (≈ 16 µM)
IC50 [6]: 7400 nM
IC50 [7]: 5070 nM

O=C(Nc1ccc(C(=O)O)c(F)c1)c1ccc2c(c1)N(S(=O)(=O)c1cccc(Cl)c1)CCO2
IC50 [1]: 6920 nM
IC50 [2]: 207 nM
IC50 [3]: 72.3 nM
Papp [4]: 2.21 ×10⁻⁶ cm/s
solubility kinetic [5]: 4 µg/mL (≈ 8.15 µM)
IC50 [6]: > 100000 nM
IC50 [7]: 18600 nM

COc1ccc(Cl)cc1S(=O)(=O)N1COc2c(F)cc(C(=O)Nc3ccc(C(=O)O)c(Cl)c3)cc21
IC50 [1]: 2730 nM
IC50 [2]: 130 nM
IC50 [3]: 123 nM
Papp [4]: 1.79 ×10⁻⁶ cm/s
solubility kinetic [5]: 73 µg/mL (≈ 135 µM)
IC50 [6]: 9570 nM
IC50 [7]: 2780 nM

COc1ccc(Cl)cc1S(=O)(=O)N1CCc2c(C)cc(C(=O)Nc3nc(CC(=O)O)cs3)cc21
IC50 [1]: > 100000 nM
IC50 [2]: 19.3 nM
IC50 [3]: 12 nM
Papp [4]: 2.03 ×10⁻⁶ cm/s
solubility kinetic [5]: 249 µg/mL (≈ 477 µM)
IC50 [6]: > 100000 nM
IC50 [7]: > 100000 nM

COc1ccc(Cl)cc1S(=O)(=O)N1CCOc2ccc(C(=O)Nc3ccc(C(=O)O)cc3)cc21
IC50 [1]: 14800 nM
IC50 [2]: 40.1 nM
IC50 [3]: 35.4 nM
Papp [4]: 2.7 ×10⁻⁶ cm/s
solubility kinetic [5]: 8 µg/mL (≈ 15.9 µM)
IC50 [6]: 36600 nM
IC50 [7]: 26700 nM

O=C(Nc1ccc(C(=O)O)c(F)c1)c1ccc2c(c1)N(S(=O)(=O)c1cccc(C(F)(F)F)c1)CCC2
IC50 [1]: 9000 nM
IC50 [2]: 126 nM
IC50 [3]: 74.8 nM
Papp [4]: 2.13 ×10⁻⁶ cm/s
solubility kinetic [5]: 10 µg/mL (≈ 19.1 µM)
IC50 [6]: 6450 nM
IC50 [7]: 2230 nM

COc1ccc(Cl)cc1CN1C(=O)C2(CC2)c2ccc(C(=O)Nc3ccc(C(=O)O)cc3)cc21
IC50 [1]: 11000 nM
IC50 [2]: 123 nM
IC50 [3]: 148 nM
Papp [4]: 1.24 ×10⁻⁶ cm/s
solubility kinetic [5]: 13 µg/mL (≈ 27.3 µM)
IC50 [6]: 19600 nM
IC50 [7]: 1270 nM

Cc1cc(C)cc(S(=O)(=O)c2nn(CC(=O)O)c3ccc(C(=O)Nc4ccccc4)cc23)c1
IC50 [1]: 8830 nM
IC50 [2]: 33.7 nM
IC50 [3]: 21.7 nM
Papp [4]: 0.01 ×10⁻⁶ cm/s
solubility kinetic [5]: 71 µg/mL (≈ 153 µM)
IC50 [6]: > 100000 nM
IC50 [7]: > 100000 nM

Nc1cccc(-c2nc([C@H]3CCCCN3C(=O)COc3ccccc3)no2)n1
IC50 [1]: > 100000 nM
IC50 [2]: 111 nM
IC50 [3]: 254 nM
Papp [4]: 5.45 ×10⁻⁶ cm/s
solubility kinetic [5]: 25 µg/mL (≈ 65.9 µM)
IC50 [6]: > 100000 nM
IC50 [7]: 32000 nM

COc1ccc(Cl)cc1S(=O)(=O)N1CCCc2ccc(C(=O)Nc3ccc(C(=O)O)cc3)cc21
IC50 [1]: 5930 nM
IC50 [2]: 26.7 nM
IC50 [3]: 32.3 nM
Papp [4]: 3.2 ×10⁻⁶ cm/s
solubility kinetic [5]: 8 µg/mL (≈ 16 µM)
IC50 [6]: 2850 nM
IC50 [7]: 2130 nM

COc1ccc(Cl)cc1CN1C(=O)COc2ccc(C(=O)Nc3nc(CC(=O)O)cs3)cc21
IC50 [1]: 32400 nM
IC50 [2]: 142 nM
IC50 [3]: 85.9 nM
Papp [4]: 1.13 ×10⁻⁶ cm/s
solubility kinetic [5]: 34 µg/mL (≈ 69.7 µM)
IC50 [6]: > 100000 nM
IC50 [7]: > 100000 nM

O=C(NC1CC1)c1cncc(-c2noc([C@H]3CCCCN3C(=O)COc3ccccc3)n2)c1
IC50 [1]: > 100000 nM
IC50 [2]: 111 nM
IC50 [3]: 1000 nM
Papp [4]: 3.2 ×10⁻⁶ cm/s
solubility kinetic [5]: 138 µg/mL (≈ 308 µM)
IC50 [6]: > 100000 nM
IC50 [7]: > 100000 nM

COc1ccc(Cl)cc1S(=O)(=O)N1COc2c(F)cc(C(=O)Nc3nc(CC(=O)O)cs3)cc21
IC50 [1]: 553 nM
IC50 [2]: 31.2 nM
IC50 [3]: 52.3 nM
Papp [4]: 2.24 ×10⁻⁶ cm/s
solubility kinetic [5]: 309 µg/mL (≈ 585 µM)
IC50 [6]: > 100000 nM
IC50 [7]: > 100000 nM

CCn1cc(S(=O)(=O)c2cc(Cl)ccc2OC)c2cc(C(=O)Nc3ccc(C(=O)O)cc3)ccc21
IC50 [1]: 1960 nM
IC50 [2]: 74.7 nM
IC50 [3]: 53.7 nM
Papp [4]: 0.67 ×10⁻⁶ cm/s
solubility kinetic [5]: 15 µg/mL (≈ 29.2 µM)
IC50 [6]: 1860 nM
IC50 [7]: 537 nM
